Assay results: patent US9802894B2, “α-glucosidase inhibitors” (priority 2015, dated 2017)

How the values were obtained:
[1] = molecular target: α-Glucosidase from Saccharomyces cervisiae; format: biochemical; settings: in vitro; phosphate buffer pH 6.8, 37° C., substrate 0.7 mM, absorbance at 400 nm; read-out: α-Glucosidase Inhibition (IC50 in μM)
Procedure: Assay Protocol for α-Glucosidase Inhibition (In Vitro α-Glucosidase Inhibition Assay)
α-Glucosidase inhibition assay was performed spectrophotometrically. α-Glucosidase from Saccharomyces cervisiae was dissolved in phosphate buffer (pH 6.8, 50 mM). Test compounds were dissolved in 70% DMSO. In 96-well plates, 20 μL of test sample, 20 μL of enzyme and 135 μL of buffer were added and incubated for 15 minutes at 37° C. After incubation, 25 μL, of p-nitrophenyl-α-D-glucopyranoside (0.7 mM, Sigma Aldrich) was added and the change in absorbance was monitored for 30 minutes at 400 nm. Test compound was replaced by DMSO (7.5% final) as control. Acarbose (Acarbose, Sigma Aldrich) was used as a standard inhibitor.

SMILES | IC50 [1] [µM] | melting point [°C]
O=C(C[C@@H](c1ccccc1)c1c[nH]c2ccccc12)c1ccccc1 [Compound 3a, (S)-3 (1H-Indol-3-yl)-1,3-diphenylpropan-1-one] | 43.3 ± 0.92 | –
O=C(C[C@@H](c1ccc(Cl)cc1)c1c[nH]c2ccccc12)c1ccc2ccccc2c1 [Compound 3b, (S)-3-(4-Chlorophenyl)-3-(1H-indol-3-yl)-1-(naphthalen-2-yl)propan-1-one] | 17.6 ± 0.98 | 237 to 241
Cc1cc(C)c([C@H](CC(=O)c2ccccc2)c2c[nH]c3ccccc23)c(C)c1 [Compound 3c, (S)-3-(1H-Indol-3-yl)-3-mesityl-1-phenylpropan-1-one] | 25.2 ± 1.96 | 169 to 171
Cc1ccc([C@H](CC(=O)c2ccccc2)c2c[nH]c3ccccc23)cc1 [Compound 3d, (S)-3-(1H-Indol-3-yl)-1-phenyl-3-(p-tolyl)propan-1-one] | 24 ± 4 | 153 to 155
COc1ccc([C@H](CC(=O)c2ccccc2)c2c[nH]c3ccccc23)cc1 [Compound 3e, (S)-3-(1H-Indol-3-yl)-3-(4-methoxyphenyl)-1-phenylpropan-1-one] | 27.1 ± 0.69 | 134 to 136
COc1ccc([C@H](CC(=O)c2ccc3ccccc3c2)c2c[nH]c3ccccc23)cc1 [Compound 3f, (S)-3-(1H-Indol-3-yl)-3-(4-methoxyphenyl)-1-(naphthalen-2-yl)propan-1-one] | 15.2 ± 0.58 | 159 to 162
O=C(C[C@@H](c1ccccc1)c1c[nH]c2ccccc12)c1ccc2ccccc2c1 [Compound 3g, (S)-3-(1H-Indol-3-yl)-1-(naphthalen-2-yl)-3-phenylpropan-1-one] | 43.9 ± 0.51 | 166 to 169
O=C(C[C@@H](c1ccc(Cl)cc1)c1c[nH]c2ccccc12)c1ccccc1 [Compound 3h, (S)-3-(4-Chlorophenyl)-3-(1H-indol-3-yl)-1-phenylpropan-1-one] | 37.9 ± 0.86 | 189 to 192
Cc1cc(C)c([C@H](CC(=O)c2ccc3ccccc3c2)c2c[nH]c3ccccc23)c(C)c1 [Compound 3i, (S)-3-(1H-Indol-3-yl)-3-mesityl-1-(naphthalen-2-yl)propan-1-one] | 15.1 ± 0.4 | 227 to 229
Cc1ccc([C@H](CC(=O)c2ccc3ccccc3c2)c2c[nH]c3ccccc23)cc1 [Compound 3j, (S)-3-(1H-Indol-3-yl)-1-(naphthalen-2-yl)-3-(p-tolyl)propan-1-one] | 18.1 ± 1.9 | 174 to 177
O=C(C[C@@H](c1cccs1)c1c[nH]c2ccccc12)c1ccccc1 [Compound 3k, (R)-3-(1H-Indol-3-yl)-1-phenyl-3-(thiophen-2-yl)propan-1-one] | 21.8 ± 0.25 | 112 to 115
O=C(CC(c1ccc(Cl)cc1Cl)c1c[nH]c2ccccc12)c1ccccc1 (stereo not shown) [Compound 3l, 3-(2,4-dichlorophenyl)-3-(1H-indol-3-yl)-1-phenylpropan-1-one] | 15.6 ± 0.17 | 110 to 112
O=C(CC(c1c(Cl)cccc1Cl)c1c[nH]c2ccccc12)c1ccccc1 (stereo not shown) [Compound 3m, 3-(2,6-dichlorophenyl)-3-(1H-indol-3-yl)-1-phenylpropan-1-one] | 4.3 ± 0.13 | 119 to 121
Cc1cccc(C(CC(=O)c2ccccc2)c2c[nH]c3ccccc23)c1 (stereo not shown) [Compound 3n, 3-(1H-indol-3-yl)-1-phenyl-3-(m-tolyl)propan-1-one] | 26.3 ± 0.48 | 130 to 132
O=C(CC(c1cccs1)c1c[nH]c2ccccc12)c1ccc2ccccc2c1 (stereo not shown) [Compound 3o, 3-(1H-indol-3-yl)-1-(naphthalen-2-yl)-3-(thiophen-2-yl)propan-1-one] | 11.8 ± 0.06 | –
O=C(CC(c1cccc([N+](=O)[O-])c1)c1c[nH]c2ccccc12)c1ccccc1 (stereo not shown) [Compound 3p, 3-(1H-indol-3-yl)-3-(3-nitrophenyl)-1-phenylpropan-1-one] | 34.6 ± 1.55 | 105 to 107
O=C(CC(c1ccc(Br)cc1)c1c[nH]c2ccccc12)c1ccccc1 (stereo not shown) [Compound 3q, 3-(4-bromophenyl)-3-(1H-indol-3-yl)-1-phenylpropan-1-one] | 24.9 ± 1.61 | 95 to 97
O=C(CC(c1cccc(Br)c1)c1c[nH]c2ccccc12)c1ccccc1 (stereo not shown) [Compound 3r, 3-(3-bromophenyl)-3-(1H-indol-3-yl)-1-phenylpropan-1-one] | 33.2 ± 0.75 | 102 to 104
